Measurements published in patent publication US20080319042A1, “Compositions and methods for treatment of liver disease” (priority 2007, published 2008).
“And” between values parts separate entries of the source, which are not always exact repeats. Identical values can stand only once.

Tests used:
HBeAg = experiment: Anti-HBSAg Assay (Procedure B), HBeAg; type: cell-based, hepatitis B virus; design: HBeAg Ave: unit not given here
[1] = system: hepatitis B surface antigen (HBsAg) production; experiment: Anti-HBSAg Assay (Procedure A); type: cell-based, hepatitis B virus; settings: 50 μg/ml
Protocol: The HBV-producing human hepatoblastoma cell line, Hep G2.2.15 was maintained in DMEM supplemented with 10% fetal bovine serum (FBS), 2 mM glutamine, 100 units/ml penicillin, 100 μg/ml streptomycin and 380 μg/ml gentamicin sulfate (G418) at 37° C. under 5% CO2 in air. The Hep G2 parental cells were grown under identical conditions in MEM with Earle's salts without G418.
Hep G2.2.15 cells (190 μl) were seeded onto microtiter plates at a concentration of 20×10^4 cells/ml. The cells incubated overnight in medium without G418 after which the compound compositions (10 μl) were added. Five 2-fold serial dilutions of extracts or fractions were tested starting at 200 μg/ml final culture concentration. PBS and 3TC (lamivudine) were included as the negative and positive controls, respectively. The treated cells were incubated at 37° C. for 4 days, after which the hepatitis B surface antigen (HBsAg) production in culture supernatants was assayed. The HBsAg released into the culture medium in the presence or absence of test samples was assayed using the BIO-RAD Genetic Systems HBsAg EIA 3.0 kit (Bio-Rad, Redmond, Wash.). This enzyme immunoassay is based on the capture of HBsAg on monoclonal antibody-coated plates. Four- and twelve-fold dilutions of all culture supernatants collected were assayed in triplicate wells of the EIA plate. The percentage inhibition of HBsAg secretion in the presence of the plant samples was calculated against the negative control (PBS).

HCV/HIV pseudovirions = experiment: microbe, parasite or virus in culture; type: cell-based, hepatitis C virus; settings: 100 μg/mL; FIG. 1
HBV DNA = experiment: Anti-HBV DNA Assay; type: cell-based, hepatitis B virus; settings: for HBV DNA copies/ml: replicates
HBsAg = experiment: Anti-HBSAg Assay (Procedure B), HBsAg; type: cell-based, hepatitis B virus; design: HBsAg Ave.: unit not given here
Protocol: The HBV-producing human hepatoblastoma cell line, Hep G2 2.2.15 is maintained in DMEM supplemented with 10% fetal bovine serum (FBS), 2 mM glutamine, 100 units/ml penicillin, 100 μg/ml streptomycin at 37° C. under 5% CO2 in air.
Samples were dissolved in DMSO at the concentration of 20 mg/mL, then further diluted with DMEM medium to the appropriate concentration.
Hep G2 2.2.15 cells (120 μl) were seeded onto 96-well plates at a concentration of 2×10^5 cells/mL. The cells incubated for 72 h in the medium without G418, after which the test samples (120 μl) were added. Five 3-fold serial dilutions of samples were tested. PBS and 3TC (lamivudine) were included as the negative and positive controls, respectively. The treated cells were incubated at 37° C. for 9 days; with the medium with sample being changed each 3 days, after which the culture supernatant was removed for analysis of both the hepatitis B surface antigen (HBsAg) production and hepatitis B DNA expression.
The HBsAg released into the culture medium in the presence or absence of test material was assayed using the kit manufactured by Shanghai Siic Kehua Biotech Co., Ltd (Shanghai, China). This enzyme immunoassay is based on the capture of HBsAg on monoclonal antibody-coated plates. Four- and twelve-fold dilutions of all culture supernatants collected were assayed in triplicate wells of the kit plate. The percentage inhibition of HBsAg secretion in the presence of the compound was calculated against the negative control (PBS). The IC50 values, the dose that inhibited viruses by 50%, were calculated using non-linear regression analysis (percent survival versus concentration).

## OCC1=C[C@@H](O)[C@@H]2C=CO[C@@H](O[C@@H]3O[C@H](CO)[C@@H](O)[C@H](O)[C@H]3O)[C@H]12 [aucubin]
HBeAg; 12.5 μg/mL
  HBeAg Ave: 1.378
  HBeAg Inhibition %: 0%
  HBeAg OD1: 1.397
  HBeAg OD2: 1.419
  HBeAg OD3: 1.318
HBeAg; 25 μg/mL
  HBeAg Ave: 1.364
  HBeAg Inhibition %: 0%
  HBeAg OD1: 1.332
  HBeAg OD2: 1.369
  HBeAg OD3: 1.390
HBeAg; 50 μg/mL
  HBeAg Ave: 1.383
  HBeAg Inhibition %: 0%
  HBeAg OD1: 1.357
  HBeAg OD2: 1.437
  HBeAg OD3: 1.354
HBeAg; 100 μg/mL
  HBeAg Ave: 1.616
  HBeAg Inhibition %: 0%
  HBeAg OD1: 1.707
  HBeAg OD2: 1.479
  HBeAg OD3: 1.662
HBeAg; 200 μg/mL
  HBeAg Ave: 1.357
  HBeAg Inhibition %: 0%
  HBeAg OD1: 1.350
  HBeAg OD2: 1.305
  HBeAg OD3: 1.415
[1]
  % Control HBSAg: 100%
  % Inhibition: 0%
HCV/HIV pseudovirions
  inhibition of HCV/HIV entry: inactive
HBV DNA; 12.5 μg/ml
  HBV DNA Average: 1.06 × 10^6 copies/ml
  HBV DNA Inhibit: 9.40%
HBV DNA; 12.5 μg/ml, listed as HP-S3
  HBV DNA copies/ml: 1.03E+06 copies/ml and 9.68E+05 copies/ml and 1.18E+06 copies/ml
HBV DNA; 25 μg/ml
  HBV DNA Average: 1.03 × 10^5 copies/ml
  HBV DNA Inhibit: 1.35%
HBV DNA; 25 μg/ml, listed as HP-S3
  HBV DNA copies/ml: 9.52E+05 copies/ml and 1.07E+06 copies/ml and 1.04E+06 copies/ml
HBV DNA; 50 μg/ml
  HBV DNA Average: 1.28 × 10^6 copies/ml
  HBV DNA Inhibit: 0.00%
HBV DNA; 50 μg/ml, listed as HP-S3
  HBV DNA copies/ml: 1.22E+06 copies/ml and 1.27E+06 copies/ml and 1.35E+06 copies/ml
HBV DNA; 100 μg/ml
  HBV DNA Average: 1.32 × 10^6 copies/ml
  HBV DNA Inhibit: 0.00%
HBV DNA; 100 μg/ml, listed as HP-S3
  HBV DNA copies/ml: 1.17E+06 copies/ml and 1.15E+06 copies/ml and 1.65E+06 copies/ml
HBV DNA; 200 μg/ml
  HBV DNA Average: 1.20 × 10^6 copies/ml
  HBV DNA Inhibit: 0.00%
HBV DNA; 200 μg/ml, listed as HP-S3
  HBV DNA copies/ml: 1.38E+06 copies/ml and 9.71E+05 copies/ml and 1.24E+06 copies/ml
HBsAg; 12.5 μg/mL
  HBsAg Ave.: 1.232
  HBsAg Inhibition %: 0%
  HBsAg OD1: 1.196
  HBsAg OD2: 1.261
  HBsAg OD3: 1.238
HBsAg; 25 μg/mL
  HBsAg Ave.: 1.309
  HBsAg Inhibition %: 0%
  HBsAg OD1: 1.242
  HBsAg OD2: 1.384
  HBsAg OD3: 1.302
HBsAg; 50 μg/mL
  HBsAg Ave.: 1.272
  HBsAg Inhibition %: 0%
  HBsAg OD1: 1.218
  HBsAg OD2: 1.375
  HBsAg OD3: 1.222
HBsAg; 100 μg/mL
  HBsAg Ave.: 1.292
  HBsAg Inhibition %: 0%
  HBsAg OD1: 1.276
  HBsAg OD2: 1.353
  HBsAg OD3: 1.246
HBsAg; 200 μg/mL
  HBsAg Ave.: 1.541
  HBsAg Inhibition %: 0%
  HBsAg OD1: 1.546
  HBsAg OD2: 1.616
  HBsAg OD3: 1.46

## OCC1=C[C@@H](O)[C@@H]2C=CO[C@@H](O)[C@H]12 [aucubin aglycone]
HBeAg; 6.25 μg/mL
  HBeAg Ave: 1.299
  HBeAg Inhibition %: 0%
  HBeAg OD1: 1.327
  HBeAg OD2: 1.265
  HBeAg OD3: 1.304
HBeAg; 12.5 μg/mL
  HBeAg Ave: 1.393
  HBeAg Inhibition %: 0%
  HBeAg OD1: 1.561
  HBeAg OD2: 1.316
  HBeAg OD3: 1.303
HBeAg; 25 μg/mL
  HBeAg Ave: 1.334
  HBeAg Inhibition %: 0%
  HBeAg OD1: 1.375
  HBeAg OD2: 1.335
  HBeAg OD3: 1.293
HBeAg; 50 μg/mL
  HBeAg Ave: 1.226
  HBeAg Inhibition %: 0%
  HBeAg OD1: 1.295
  HBeAg OD2: 1.259
  HBeAg OD3: 1.123
HBeAg; 100 μg/mL
  HBeAg Ave: 1.329
  HBeAg Inhibition %: 0%
  HBeAg OD1: 1.162
  HBeAg OD2: 1.391
  HBeAg OD3: 1.435
HCV/HIV pseudovirions
  inhibition of HCV/HIV entry: approximately 80%
HBV DNA; 6.25 μg/ml
  HBV DNA Average: 1.10 × 10^6 copies/ml
  HBV DNA Inhibit: 5.99%
HBV DNA; 6.25 μg/ml, listed as HP-S4
  HBV DNA copies/ml: 1.26E+06 copies/ml and 9.83E+05 copies/ml and 1.06E+06 copies/ml
HBV DNA; 12.5 μg/ml
  HBV DNA Average: 9.52 × 10^5 copies/ml
  HBV DNA Inhibit: 8.60%
HBV DNA; 12.5 μg/ml, listed as HP-S4
  HBV DNA copies/ml: 1.16E+06 copies/ml and 9.17E+05 copies/ml and 7.78E+05 copies/ml
HBV DNA; 25 μg/ml
  HBV DNA Average: 1.01 × 10^6 copies/ml
  HBV DNA Inhibit: 13.70%
HBV DNA; 25 μg/ml, listed as HP-S4
  HBV DNA copies/ml: 1.02E+06 copies/ml and 9.74E+05 copies/ml and 1.04E+06 copies/ml
HBV DNA; 50 μg/ml
  HBV DNA Average: 9.79 × 10^5 copies/ml
  HBV DNA Inhibit: 16.30%
HBV DNA; 50 μg/ml, listed as HP-S4
  HBV DNA copies/ml: 1.05E+06 copies/ml and 9.27E+05 copies/ml and 9.59E+05 copies/ml
HBV DNA; 100 μg/ml
  HBV DNA Average: 8.43 × 10^5 copies/ml
  HBV DNA Inhibit: 27.90%
HBV DNA; 100 μg/ml, listed as HP-S4
  HBV DNA copies/ml: 7.90E+05 copies/ml and 7.94E+05 copies/ml and 9.44E+05 copies/ml
HBsAg; 6.25 μg/mL
  HBsAg Ave.: 1.407
  HBsAg Inhibition %: 0%
  HBsAg OD1: 1.392
  HBsAg OD2: 1.375
  HBsAg OD3: 1.454
HBsAg; 12.5 μg/mL
  HBsAg Ave.: 1.323
  HBsAg Inhibition %: 4.5%
  HBsAg OD1: 1.370
  HBsAg OD2: 1.372
  HBsAg OD3: 1.227
HBsAg; 25 μg/mL
  HBsAg Ave.: 1.300
  HBsAg Inhibition %: 6.1%
  HBsAg OD1: 1.608
  HBsAg OD2: 1.116
  HBsAg OD3: 1.175
HBsAg; 50 μg/mL
  HBsAg Ave.: 0.845
  HBsAg Inhibition %: 37.9%
  HBsAg OD1: 0.935
  HBsAg OD2: 0.926
  HBsAg OD3: 0.675
HBsAg; 100 μg/mL
  HBsAg Ave.: 0.656
  HBsAg Inhibition %: 52.6%
  HBsAg OD1: 0.667
  HBsAg OD2: 0.641
  HBsAg OD3: 0.66
